Source: publication doi:10.1101/2024.09.17.613365, “Type-II kinase inhibitors that target Parkinson’s Disease-associated LRRK2” (bioRxiv, 2025)
Like-named read-outs stand apart in the source and are kept apart here. Values belong to the compound of their own block, whether it stands above or below them.

Columns and labels:
LRRK2^KW [1] = target: T1, LRRK2^KW (Homo sapiens, UniProt Q5S007); design: DSF thermal shift of purified LRRK2 KW construct with compound; conditions: binder
T1 construct: Kinase and WD40 domain construct (KW)
T1 sequence (Q5S007 whole entry, the tested form may be a part): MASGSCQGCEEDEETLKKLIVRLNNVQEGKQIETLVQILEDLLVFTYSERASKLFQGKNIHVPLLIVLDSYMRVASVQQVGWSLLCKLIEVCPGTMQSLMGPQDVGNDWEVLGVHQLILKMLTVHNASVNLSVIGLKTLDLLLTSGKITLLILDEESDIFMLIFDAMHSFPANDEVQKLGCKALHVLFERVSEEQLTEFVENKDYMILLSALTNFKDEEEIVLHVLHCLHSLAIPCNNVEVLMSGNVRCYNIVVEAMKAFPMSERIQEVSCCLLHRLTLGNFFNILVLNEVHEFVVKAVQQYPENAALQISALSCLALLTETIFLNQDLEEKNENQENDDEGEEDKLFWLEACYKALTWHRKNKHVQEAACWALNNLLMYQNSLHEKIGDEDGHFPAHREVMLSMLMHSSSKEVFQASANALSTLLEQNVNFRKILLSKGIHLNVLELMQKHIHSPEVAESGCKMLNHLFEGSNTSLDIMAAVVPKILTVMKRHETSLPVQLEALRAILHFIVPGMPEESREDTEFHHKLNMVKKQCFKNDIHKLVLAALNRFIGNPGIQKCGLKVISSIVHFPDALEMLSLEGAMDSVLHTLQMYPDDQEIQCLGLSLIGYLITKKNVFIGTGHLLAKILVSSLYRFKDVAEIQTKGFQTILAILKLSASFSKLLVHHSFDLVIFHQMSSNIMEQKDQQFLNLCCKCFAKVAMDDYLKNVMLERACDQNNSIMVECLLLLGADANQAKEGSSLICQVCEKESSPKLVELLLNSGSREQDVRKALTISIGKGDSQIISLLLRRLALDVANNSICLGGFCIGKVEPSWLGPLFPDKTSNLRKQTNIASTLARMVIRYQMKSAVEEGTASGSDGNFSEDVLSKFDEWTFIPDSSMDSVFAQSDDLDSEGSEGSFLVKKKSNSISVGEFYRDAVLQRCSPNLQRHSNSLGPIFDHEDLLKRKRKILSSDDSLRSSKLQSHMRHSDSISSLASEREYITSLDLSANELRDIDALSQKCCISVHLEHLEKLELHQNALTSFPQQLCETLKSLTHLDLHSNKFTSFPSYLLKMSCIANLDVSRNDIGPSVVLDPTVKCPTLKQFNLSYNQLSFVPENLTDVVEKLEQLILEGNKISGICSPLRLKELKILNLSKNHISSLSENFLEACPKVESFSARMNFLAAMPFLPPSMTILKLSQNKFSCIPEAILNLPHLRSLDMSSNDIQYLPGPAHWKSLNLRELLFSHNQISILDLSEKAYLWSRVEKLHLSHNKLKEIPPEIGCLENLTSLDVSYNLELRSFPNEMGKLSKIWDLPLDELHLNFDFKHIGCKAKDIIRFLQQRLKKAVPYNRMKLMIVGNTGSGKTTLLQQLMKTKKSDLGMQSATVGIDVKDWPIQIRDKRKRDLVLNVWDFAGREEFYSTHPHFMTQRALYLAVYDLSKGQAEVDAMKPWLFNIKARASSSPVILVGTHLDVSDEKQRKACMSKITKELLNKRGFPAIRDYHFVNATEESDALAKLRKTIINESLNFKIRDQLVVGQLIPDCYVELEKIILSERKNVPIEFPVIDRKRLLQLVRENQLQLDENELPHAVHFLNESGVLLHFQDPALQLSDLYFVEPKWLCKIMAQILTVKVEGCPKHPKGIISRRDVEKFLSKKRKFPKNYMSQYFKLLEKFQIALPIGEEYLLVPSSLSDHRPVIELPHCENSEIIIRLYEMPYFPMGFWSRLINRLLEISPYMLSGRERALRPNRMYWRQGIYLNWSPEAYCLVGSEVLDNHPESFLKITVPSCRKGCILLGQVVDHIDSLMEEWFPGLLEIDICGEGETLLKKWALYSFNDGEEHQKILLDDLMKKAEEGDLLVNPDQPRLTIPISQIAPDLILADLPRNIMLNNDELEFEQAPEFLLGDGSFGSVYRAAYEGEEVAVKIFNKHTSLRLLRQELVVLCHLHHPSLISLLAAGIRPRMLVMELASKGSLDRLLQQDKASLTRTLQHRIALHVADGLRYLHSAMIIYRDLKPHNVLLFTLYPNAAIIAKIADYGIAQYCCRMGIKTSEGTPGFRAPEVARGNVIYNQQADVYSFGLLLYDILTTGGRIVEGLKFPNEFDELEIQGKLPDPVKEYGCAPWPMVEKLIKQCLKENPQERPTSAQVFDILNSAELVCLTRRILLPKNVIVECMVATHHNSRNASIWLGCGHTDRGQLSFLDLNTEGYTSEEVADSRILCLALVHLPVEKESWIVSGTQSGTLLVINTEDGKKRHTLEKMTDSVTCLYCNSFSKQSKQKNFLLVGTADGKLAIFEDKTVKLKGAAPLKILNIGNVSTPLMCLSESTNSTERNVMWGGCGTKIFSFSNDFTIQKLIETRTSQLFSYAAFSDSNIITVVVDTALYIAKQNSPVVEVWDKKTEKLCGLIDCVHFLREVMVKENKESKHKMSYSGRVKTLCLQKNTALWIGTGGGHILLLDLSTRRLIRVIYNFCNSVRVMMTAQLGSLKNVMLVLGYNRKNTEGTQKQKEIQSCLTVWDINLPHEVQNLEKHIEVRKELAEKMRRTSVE
Excerpt: Additionally, we screened a library of published type-II inhibitors to identify those that bind to LRRK2^KW (a Kinase and WD40 domain construct of LRRK2) with high affinity. […] Next, we evaluated the potency and selectivity of these new compounds. We performed on-target screening by measuring the thermostability increase of LRRK2^KW in the presence of the new compounds using DSF (Supporting Information Table S2). We also determined the in vitro IC50 (median inhibitory concentration) values for each of the new compounds by purifying LRRK2^RCKW and measuring its kinase activity in the presence of our new inhibitors using the PhosphoSense® activity assay from AssayQuant (Supporting Information Table S2). Finally, we estimated the kinome selectivity of each compound by measuring the thermostability increase of approximately 100 representative kinases in the presence of the compounds via DSF (Supporting Information Table S2).

[2] = target: T2, leucine-rich repeat kinase 2 (LRRK2) (Homo sapiens, UniProt Q5S007); assay: biochemical; design: PhosphoSense (AssayQuant) kinase activity assay with purified LRRK2 RCKW
T2 construct: LRRK2^RCKW (ROC, COR, Kinase, WD40)
T2 sequence (Q5S007 1327-2527 limits assumed): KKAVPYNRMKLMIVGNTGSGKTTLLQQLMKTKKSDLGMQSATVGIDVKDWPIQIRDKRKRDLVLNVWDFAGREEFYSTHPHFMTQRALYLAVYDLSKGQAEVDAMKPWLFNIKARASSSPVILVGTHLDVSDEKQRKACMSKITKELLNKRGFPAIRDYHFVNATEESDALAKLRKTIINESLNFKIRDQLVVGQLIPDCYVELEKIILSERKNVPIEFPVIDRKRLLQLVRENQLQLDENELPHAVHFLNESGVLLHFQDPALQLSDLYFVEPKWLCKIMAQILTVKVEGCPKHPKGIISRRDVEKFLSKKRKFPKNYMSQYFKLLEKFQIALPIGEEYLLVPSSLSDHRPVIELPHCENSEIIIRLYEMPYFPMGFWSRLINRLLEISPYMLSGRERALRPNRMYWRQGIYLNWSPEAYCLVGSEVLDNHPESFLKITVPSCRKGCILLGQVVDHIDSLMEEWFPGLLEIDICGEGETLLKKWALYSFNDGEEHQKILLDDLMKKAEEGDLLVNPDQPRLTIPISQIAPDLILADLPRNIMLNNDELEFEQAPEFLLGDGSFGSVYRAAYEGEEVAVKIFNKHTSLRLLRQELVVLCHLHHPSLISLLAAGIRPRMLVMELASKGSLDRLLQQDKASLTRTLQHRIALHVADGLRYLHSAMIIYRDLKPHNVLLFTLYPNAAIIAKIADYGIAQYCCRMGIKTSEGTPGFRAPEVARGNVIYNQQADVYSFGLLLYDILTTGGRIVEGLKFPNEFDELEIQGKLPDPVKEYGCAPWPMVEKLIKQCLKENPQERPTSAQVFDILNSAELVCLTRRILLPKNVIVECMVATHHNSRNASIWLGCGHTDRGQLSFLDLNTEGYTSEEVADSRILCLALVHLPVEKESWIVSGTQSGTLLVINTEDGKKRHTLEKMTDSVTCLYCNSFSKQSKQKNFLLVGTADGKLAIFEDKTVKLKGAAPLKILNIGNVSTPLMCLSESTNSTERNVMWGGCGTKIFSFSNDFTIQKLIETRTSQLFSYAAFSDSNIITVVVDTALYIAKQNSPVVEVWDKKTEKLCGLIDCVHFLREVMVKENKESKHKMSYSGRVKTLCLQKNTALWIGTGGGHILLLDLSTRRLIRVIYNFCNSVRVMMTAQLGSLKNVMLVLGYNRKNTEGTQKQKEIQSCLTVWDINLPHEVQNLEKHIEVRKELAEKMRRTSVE
Excerpt: Next, we evaluated the potency and selectivity of these new compounds. We performed on-target screening by measuring the thermostability increase of LRRK2^KW in the presence of the new compounds using DSF (Supporting Information Table S2). We also determined the in vitro IC50 (median inhibitory concentration) values for each of the new compounds by purifying LRRK2^RCKW and measuring its kinase activity in the presence of our new inhibitors using the PhosphoSense® activity assay from AssayQuant (Supporting Information Table S2). Finally, we estimated the kinome selectivity of each compound by measuring the thermostability increase of approximately 100 representative kinases in the presence of the compounds via DSF (Supporting Information Table S2).

LRRK2^KW [3] = target: T1, LRRK2^KW; design: Differential scanning fluorometry, thermal stabilization of LRRK2 KW by compound; conditions: binder
Excerpt: Next, we evaluated the potency and selectivity of these new compounds. We performed on-target screening by measuring the thermostability increase of LRRK2^KW in the presence of the new compounds using DSF (Supporting Information Table S2). We also determined the in vitro IC50 (median inhibitory concentration) values for each of the new compounds by purifying LRRK2^RCKW and measuring its kinase activity in the presence of our new inhibitors using the PhosphoSense® activity assay from AssayQuant (Supporting Information Table S2). Finally, we estimated the kinome selectivity of each compound by measuring the thermostability increase of approximately 100 representative kinases in the presence of the compounds via DSF (Supporting Information Table S2). […] Additionally, we screened a library of published type-II inhibitors to identify those that bind to LRRK2^KW (a Kinase and WD40 domain construct of LRRK2) with high affinity.

IC50 [2]: 2.11 ± 1.19 µM
Compound: Cn1cc(N(C(=O)C2(C(N)=O)CC2)c2cccc(-c3c[nH]c4ncnc(N5CCOCC5)c34)c2)cn1 [compound 9, N-(1-methyl-1H-pyrazol-4-yl)-N-(3-(4-morpholino-7H-pyrrolo[2,3-d]pyrimidin-5-yl)phenyl)cyclopropane-1,1-dicarboxamide]

ΔTm [K] (LRRK2^KW [3]): 18.0 K
Compound: Cc1ccc(-n2nc(C(C)(C)C)cc2NC(=O)Nc2cccc(-c3c[nH]c4nc(Cl)nc(N5CCOCC5)c34)c2)cc1 [compound 30, RN277]

ΔTm [K] (LRRK2^KW [3]): 19.9 K
Compound: CCSc1nc(NC)c2c(-c3cccc(NC(=O)Nc4cc(C(C)(C)C)nn4-c4ccc(C)cc4)c3)c[nH]c2n1 [compound 32, RN341]

ΔTm [K] (LRRK2^KW [3]): 16.0 K
Compound: COc1cc(C(=O)N2CCOCC2)c(F)cc1Nc1nc(N(C)C)c2c(Cl)c[nH]c2n1 [compound 33]

ΔTm [K] (LRRK2^KW [3]): 1.0 K
Compound: COc1cc(S(C)(=O)=O)ccc1Nc1nc(N(C)C)c2c(-c3cccc(NC(=O)Nc4cc(C(C)(C)C)nn4-c4ccc(C)cc4)c3)c[nH]c2n1 [compound 35, 1-(3-(tert-butyl)-1-(p-tolyl)-1H-pyrazol-5-yl)-3-(3-(4-(dimethylamino)-2-((2-methoxy-4-(methylsulfonyl)phenyl)amino)-7H-pyrrolo[2,3-d]pyrimidin-5-yl)phenyl)urea]

ΔTm [K] (LRRK2^KW [3]): 0.0 K
Compound: COc1cc(C(=O)N2CCOCC2)c(F)cc1Nc1nc(N(C)C)c2c(-c3cccc(NC(=O)Nc4cc(C(C)(C)C)nn4-c4ccc(C)cc4)c3)c[nH]c2n1 [compound 36, 1-(3-(tert-butyl)-1-(p-tolyl)-1H-pyrazol-5-yl)-3-(3-(4-(dimethylamino)-2-((5-fluoro-2-methoxy-4-(morpholine-4-carbonyl)phenyl)amino)-7H-pyrrolo[2,3-d]pyrimidin-5-yl)phenyl)urea]

ΔTm [K] (LRRK2^KW [3]): 1.5 K
Compound: COc1cc(S(C)(=O)=O)ccc1Nc1nc(N(C)C)c2c(-c3cccc(NC(=O)Nc4cc(C(C)(C)C)nn4-c4ccc5ncccc5c4)c3)c[nH]c2n1 [compound 37, 1-(3-(tert-butyl)-1-(quinolin-6-yl)-1H-pyrazol-5-yl)-3-(3-(4-(dimethylamino)-2-((2-methoxy-4-(methylsulfonyl)phenyl)amino)-7H-pyrrolo[2,3-d]pyrimidin-5-yl)phenyl)urea]

IC50 ([2]; read-out: IC50 (cells in μM)): > 15 µM
∆Tm [K] (LRRK2^KW [1]): 1.0 K
Compound: NC(=O)C1(C(=O)N(c2ccc(F)cc2)c2ccc(Oc3ccc4n[nH]cc4c3)cc2)CC1 [compound 48, N-(4-((2H-indazol-5-yl)oxy)phenyl)-N-(4-fluorophenyl)cyclopropane-1,1-dicarboxamide]

IC50 ([2]; read-out: IC50 (cells in μM)): > 15 µM
∆Tm [K] (LRRK2^KW [1]): 2.0 K
Compound: NC(=O)C1(C(=O)N(c2ccc(F)cc2)c2ccc(Nc3ccc4n[nH]cc4c3)cc2)CC1 [compound 49, N-(4-((2H-indazol-5-yl)amino)phenyl)-N-(4-fluorophenyl)cyclopropane-1,1-dicarboxamide]

IC50 ([2]; read-out: IC50 (cells in μM)): > 15 µM
∆Tm [K] (LRRK2^KW [1]): 1.5 K
Compound: Cc1cn(-c2cc(NC(=O)c3ccc(C)c(Nc4ccc5n[nH]cc5c4)c3)cc(C(F)(F)F)c2)cn1 [compound 50, 3-((2H-indazol-5-yl)amino)-4-methyl-N-(3-(4-methyl-1H-imidazol-1-yl)-5-(trifluoromethyl)phenyl)benzamide]

IC50 ([2]; read-out: IC50 (cells in μM)): > 15 µM
∆Tm [K] (LRRK2^KW [1]): 1.0 K
Compound: NC(=O)C1(C(=O)N(c2ccc(F)cc2)c2ccc3cn[nH]c3c2)CC1 [compound 51, N-(4-fluorophenyl)-N-(1H-indazol-6-yl)cyclopropane-1,1-dicarboxamide]

The next lines start with the compound.

Compound: CCN1CCN(Cc2ccc(NC(=O)c3ccc(C)c(NC(=O)c4cncc(-c5cccs5)c4)c3)cc2C(F)(F)F)CC1 [ALW-II-41-27]
dTm LRRK2(KW) (LRRK2^KW [1]): -0.5 K

Compound: Cc1ccc(NC(=O)c2cccc(C(C)(C)C#N)c2)cc1Nc1ccc2ncn(C)c(=O)c2c1 [AZ 628]
dTm LRRK2(KW) (LRRK2^KW [1]): -0.5 K

Compound: N#CC1(c2ccc(NC(=O)c3cccnc3NCc3ccncc3)cc2)CCCC1 [Apatinib]
dTm LRRK2(KW) (LRRK2^KW [1]): -1 K

Compound: COc1cc(Oc2ccnc3cc(OC)c(OC)cc23)ccc1NC(=O)NC(C)c1nccs1 (stereo not shown) [KI20227]
dTm LRRK2(KW) (LRRK2^KW [1]): 3 K

Compound: CC1(C)CNc2cc(NC(=O)c3cccnc3NCc3ccncc3)ccc21 [Motesanib]
dTm LRRK2(KW) (LRRK2^KW [1]): -0.5 K

Compound: Cc1ccc(C(=O)Nc2cccc(C(F)(F)F)c2)cc1Nc1nc(-c2cccnc2)nc2c1cnn2C [NVP-BHG712]
dTm LRRK2(KW) (LRRK2^KW [1]): -0.5 K

Compound: Cc1cn(-c2cc(NC(=O)c3ccc(C)c(Nc4nccc(-c5cccnc5)n4)c3)cc(C(F)(F)F)c2)cn1 [Nilotinib]
dTm LRRK2(KW) (LRRK2^KW [1]): -2.5 K

Compound: Cc1ccc(-n2nc(C(C)(C)C)cc2NC(=O)Nc2cc(COc3cccnc3)[nH]n2)cc1 [PF-4618433]
dTm LRRK2(KW) (LRRK2^KW [1]): 11 K

Compound: CNC(=O)c1cc(Oc2ccc(NC(=O)Nc3ccc(Cl)c(C(F)(F)F)c3)c(F)c2)ccn1 [Regorafinib]
dTm LRRK2(KW) (LRRK2^KW [1]): 5.5 K

Compound: Cc1ccc(NC(=O)c2cccc(N(C)C)c2)cc1NC(=O)c1ccc(O)cc1 [ZM336372]
dTm LRRK2(KW) (LRRK2^KW [1]): -1 K

Compound: COc1cc2c(Nc3ccc(NC(=O)c4ccccc4)cc3)ncnc2cc1OCCCN1CCOCC1 [ZM447439]
dTm LRRK2(KW) (LRRK2^KW [1]): 6.5 K

Compound: NC(=O)C1(C(=O)N(c2ccc(F)cc2)c2cccc(-c3c[nH]c4ncnc(N5CCOCC5)c34)c2)CC1 [compound 2, N-(4-fluorophenyl)-N-(3-(4-morpholino-7H-pyrrolo[2,3-d]pyrimidin-5-yl)phenyl)cyclopropane-1,1-dicarboxamide]
IC50 [2]: 0.185 ± 0.01 µM

Compound: NC(=O)C1(C(=O)N(c2ccc(F)cc2)c2cccc(-c3c[nH]c4ncnc(N5CCOCC5)c34)c2)CCCC1 [compound 3, N-(4-fluorophenyl)-N-(3-(4-morpholino-7H-pyrrolo[2,3-d]pyrimidin-5-yl)phenyl)cyclopentane-1,1-dicarboxamide]
IC50 [2]: 0.694 ± 0.001 µM

Compound: Cc1ccc(N(C(=O)C2(C(N)=O)CC2)c2ccc(F)cc2)cc1-c1c[nH]c2ncnc(N3CCOCC3)c12 [compound 5, N-(4-fluorophenyl)-N-(4-methyl-3-(4-morpholino-7H-pyrrolo[2,3-d]pyrimidin-5-yl)phenyl)cyclopropane-1,1-dicarboxamide]
IC50 [2]: 9.58 ± 0.565 µM

Compound: Cc1cc(-c2c[nH]c3ncnc(N4CCOCC4)c23)cc(N(C(=O)C2(C(N)=O)CC2)c2ccc(F)cc2)c1 [compound 6, N-(4-fluorophenyl)-N-(3-methyl-5-(4-morpholino-7H-pyrrolo[2,3-d]pyrimidin-5-yl)phenyl)cyclopropane-1,1-dicarboxamide]
IC50 [2]: 2.15 ± 0.076 µM

Compound: Cc1ccc(-c2c[nH]c3ncnc(N4CCOCC4)c23)cc1N(C(=O)C1(C(N)=O)CC1)c1ccc(F)cc1 [compound 7, N-(4-fluorophenyl)-N-(2-methyl-5-(4-morpholino-7H-pyrrolo[2,3-d]pyrimidin-5-yl)phenyl)cyclopropane-1,1-dicarboxamide]
IC50 [2]: 10.5 ± 1.02 µM
